Assay results reported in US20230321196A1 (priority 2020, published 2023).
Where two headings read alike, the source gives them in different places. Bridges are numbered along the chain shown (N, C = ends). Where no end group is shown, it is not given here.

Key:
[1] = test system: influenzavirus-infected mice; type: in vivo
[2] = test system: influenzavirus-infected mice; type: in vivo; remark: listed apart in the source
[3] = test system: influenzavirus-infected mice; type: in vivo; details: for Score of gross lesion examination of lung: day 5 after inoculation
[4] = test system: influenzavirus-infected mice; type: in vivo; details: mean ± SE
[5] = test system: influenzavirus PR8(A/PR/8/34 (H1N1)); test: Test III: virus concentration in lung; type: in vivo, mice; details: administered groups vs control group
COVID-19 patients = details: 15 ng/kg body weight/min i.v. continuous 72 hours, then 8 hours per day up to day 10; trial still blinded
[6] = test system: influenzavirus-infected mice; type: in vivo; remark: listed apart in the source
[7] = test system: influenzavirus-infected mice; type: in vivo; remark: listed apart in the source
[8] = test system: influenzavirus-infected mice; type: in vivo; details: for Score of gross lesion examination of lung: day 5 after inoculation; remark: listed apart in the source
[9] = test system: influenzavirus PR8(A/PR/8/34 (H1N1)); test: Test II: virus concentration in lung; type: in vivo, mice; details: for Virus concentration in lung: right lung, day 5 after inoculation, mean ± SE
[10] = test system: influenzavirus-infected mice; type: in vivo; details: left lung, mean ± SE
[11] = 25 nmol/kg i.v., day 1 after inoculation
[12] = 25 nmol/kg i.v., day 2 after inoculation
[13] = 25 nmol/kg i.v., day 3 after inoculation
[14] = 25 nmol/kg i.v., day 4 after inoculation
[15] = 25 nmol/kg i.v., day 5 after inoculation
[16] = 25 nmol/kg tail vein once per day, day 0 after inoculation, mean ± SE
[17] = 250 nmol/kg i.v., day 1 after inoculation
[18] = 250 nmol/kg i.v., day 2 after inoculation
[19] = 250 nmol/kg i.v., day 3 after inoculation
[20] = 250 nmol/kg i.v., day 4 after inoculation
[21] = 250 nmol/kg i.v., day 5 after inoculation
[22] = 250 nmol/kg tail vein once per day, day 0 after inoculation, mean ± SE
[23] = 10 nmol/kg i.v., day 0 after inoculation
[24] = 10 nmol/kg i.v., day 1 after inoculation
[25] = 10 nmol/kg i.v., day 2 after inoculation
[26] = 10 nmol/kg i.v., day 3 after inoculation
[27] = 10 nmol/kg i.v., day 4 after inoculation
[28] = 10 nmol/kg i.v., day 5 after inoculation
[29] = 10 nmol/kg tail vein once per day, 1 day before inoculation, mean ± SE
[30] = 100 nmol/kg i.v., day 0 after inoculation
[31] = 100 nmol/kg i.v., day 1 after inoculation
[32] = 100 nmol/kg i.v., day 2 after inoculation
[33] = 100 nmol/kg i.v., day 3 after inoculation
[34] = 100 nmol/kg i.v., day 4 after inoculation
[35] = 100 nmol/kg i.v., day 5 after inoculation
[36] = 100 nmol/kg tail vein once per day, 1 day before inoculation, mean ± SE
[37] = Test II, administered groups vs control group

Molecule: 60K PEG-AM: adrenomedullin derivative having a PEG group with a weight-average molecular weight of 60 kDa, prepared according to WO 2017/047788
- General condition score [1, 11]: 0.0 ± 0.0
- General condition score [1, 12]: 0.1 ± 0.0
- General condition score [1, 13]: 0.5 ± 0.0
- General condition score [1, 14]: 0.7 ± 0.1
- General condition score [1, 15]: 0.9 ± 0.1
- General condition score [1, 16]: 0.0 ± 0.0
- General condition score [1, 17]: 0.0 ± 0.0
- General condition score [1, 18]: 0.1 ± 0.0
- General condition score [1, 19]: 0.5 ± 0.0
- General condition score [1, 20]: 0.8 ± 0.0
- General condition score [1, 21]: 1.0 ± 0.0
- General condition score [1, 22]: 0.0 ± 0.0
- Body weight [2, 11]: 16.4 ± 0.4
- Body weight [2, 12]: 16.3 ± 0.4
- Body weight [2, 13]: 14.5 ± 0.4
- Body weight [2, 14]: 13.9 ± 0.5
- Body weight [2, 15]: 13.9 ± 0.5
- Body weight [2, 16]: 16.4 ± 0.4
- Body weight [2, 17]: 16.1 ± 0.4
- Body weight [2, 18]: 15.8 ± 0.5
- Body weight [2, 19]: 14.3 ± 0.4
- Body weight [2, 20]: 13.7 ± 0.3
- Body weight [2, 21]: 13.3 ± 0.3
- Body weight [2, 22]: 16.4 ± 0.3
- Score of gross lesion examination of lung ([3]; Left lung, 25 nmol/kg i.v. once per day, mean ± SE): 2.0 ± 0.5
- Score of gross lesion examination of lung ([3]; Left lung, 250 nmol/kg i.v. once per day): 2.4 ± 0.2
- Score of gross lesion examination of lung ([3]; Right lung, 25 nmol/kg i.v. once per day): 2.0 ± 0.5
- Score of gross lesion examination of lung ([3]; Right lung, 250 nmol/kg i.v. once per day): 1.9 ± 0.3
- gross lesion formation in the lung ([3]; Test III, administered groups vs control group): significantly suppressed
- Score of histopathological examination of lung: Pneumonia score ([4]; Table 14, 25 nmol/kg i.v. once per day): 8.3 ± 1.5
- Score of histopathological examination of lung: Pneumonia score ([4]; Table 14, 250 nmol/kg i.v. once per day): 9.4 ± 0.6
- Score of histopathological examination of lung: Pneumonia score ([4]; Table 15, 25 nmol/kg i.v. once per day): 8.3 ± 1.5
- Score of histopathological examination of lung: Pneumonia score ([4]; Table 15, 250 nmol/kg i.v. once per day): 9.4 ± 0.6
- virus concentration in the lung [5]: significantly decreased

Molecule: CC[C@H](C)[C@H](NC(=O)[C@H](CCC(N)=O)NC(=O)[C@H](Cc1c[nH]cn1)NC(=O)[C@H](C)NC(=O)[C@H](CC(C)C)NC(=O)[C@H](CCCCN)NC(=O)[C@H](CCC(N)=O)NC(=O)[C@@H](NC(=O)[C@@H](NC(=O)[C@@H]1CSSC[C@H](NC(=O)CNC(=O)[C@H](Cc2ccccc2)NC(=O)[C@H](CO)NC(=O)[C@H](CCCNC(=N)N)NC(=O)[C@H](CC(C)C)NC(=O)CNC(=O)[C@H](CCC(N)=O)NC(=O)[C@H](Cc2ccccc2)NC(=O)[C@H](CC(N)=O)NC(=O)[C@H](CC(N)=O)NC(=O)[C@H](CCSC)NC(=O)[C@H](CO)NC(=O)[C@H](CCC(N)=O)NC(=O)[C@H](CCCNC(=N)N)NC(=O)[C@@H](N)Cc2ccc(O)cc2)C(=O)N[C@@H](CCCNC(=N)N)C(=O)N[C@@H](Cc2ccccc2)C(=O)NCC(=O)N[C@@H]([C@@H](C)O)C(=O)N1)[C@@H](C)O)C(C)C)C(=O)N[C@@H](Cc1ccc(O)cc1)C(=O)N[C@@H](CCC(N)=O)C(=O)N[C@@H](Cc1ccccc1)C(=O)N[C@H](C(=O)N[C@@H](CC(=O)O)C(=O)N[C@@H](CCCCN)C(=O)N[C@@H](CC(=O)O)C(=O)N[C@@H](CCCCN)C(=O)N[C@@H](CC(=O)O)C(=O)N[C@@H](CC(N)=O)C(=O)N[C@H](C(=O)N[C@@H](C)C(=O)N1CCC[C@H]1C(=O)N[C@@H](CCCNC(=N)N)C(=O)N[C@@H](CO)C(=O)N[C@@H](CCCCN)C(=O)N[C@H](C(=O)N[C@@H](CO)C(=O)N1CCC[C@H]1C(=O)N[C@@H](CCC(N)=O)C(=O)NCC(=O)N[C@@H](Cc1ccc(O)cc1)C(N)=O)[C@@H](C)CC)C(C)C)[C@@H](C)O [adrenomedullin]
- adverse events (COVID-19 patients): no adverse event directly caused by AM has been reported

Molecule: [Ala-44]hAM(13-52): adrenomedullin analog: peptide of SEQ ID NO: 17, amidated at the C-terminus, disulfide bond formed by two cysteine residues (SFGCRFGTCTVQKLAHQIYQFTDKDKDNVAPASKISPQGY-NH2; disulfide 4-9 (inferred))
- General condition score [6, 23]: 0.0 ± 0.0
- General condition score [6, 24]: 0.0 ± 0.0
- General condition score [6, 25]: 0.2 ± 0.0
- General condition score [6, 26]: 0.5 ± 0.0
- General condition score [6, 27]: 0.8 ± 0.0
- General condition score [6, 28]: 1.0 ± 0.0
- General condition score [6, 29]: 0.0 ± 0.0
- General condition score [6, 30]: 0.0 ± 0.0
- General condition score [6, 31]: 0.0 ± 0.0
- General condition score [6, 32]: 0.1 ± 0.0
- General condition score [6, 33]: 0.5 ± 0.0
- General condition score [6, 34]: 0.8 ± 0.0
- General condition score [6, 35]: 1.0 ± 0.0
- General condition score [6, 36]: 0.0 ± 0.0
- Body weight [7, 23]: 15.7 ± 0.3
- Body weight [7, 24]: 16.1 ± 0.3
- Body weight [7, 25]: 15.1 ± 0.3
- Body weight [7, 26]: 14.0 ± 0.3
- Body weight [7, 27]: 13.2 ± 0.2
- Body weight [7, 28]: 12.8 ± 0.2
- Body weight [7, 29]: 15.8 ± 0.2
- Body weight [7, 30]: 15.8 ± 0.2
- Body weight [7, 31]: 16.2 ± 0.3
- Body weight [7, 32]: 15.5 ± 0.2
- Body weight [7, 33]: 14.6 ± 0.3
- Body weight [7, 34]: 13.6 ± 0.2
- Body weight [7, 35]: 12.9 ± 0.1
- Body weight [7, 36]: 15.8 ± 0.2
- Score of gross lesion examination of lung ([8]; Left lung, 10 nmol/kg i.v. once per day, mean ± SE): 2.8 ± 0.2
- Score of gross lesion examination of lung ([8]; Left lung, 100 nmol/kg i.v. once per day): 2.6 ± 0.2
- Score of gross lesion examination of lung ([8]; Right lung, 10 nmol/kg i.v. once per day): 2.9 ± 0.1
- Score of gross lesion examination of lung ([8]; Right lung, 100 nmol/kg i.v. once per day): 2.5 ± 0.2
- gross lesion formation in the lung [8, 37]: significantly suppressed
- Virus concentration in lung ([9]; 10 nmol/kg i.v. once per day): 53.0 ± 3.0 ×10^4 PFU/right lung
- Virus concentration in lung ([9]; 100 nmol/kg i.v. once per day): 43.3 ± 4.6 ×10^4 PFU/right lung
- virus concentration in the lung [9, 37]: significantly decreased
- Score of histopathological examination of lung: Pneumonia score ([10]; 10 nmol/kg i.v. once per day): 8.9 ± 0.4
- Score of histopathological examination of lung: Pneumonia score ([10]; 100 nmol/kg i.v. once per day): 9.0 ± 0.5
